Bridge positions count the residues as written; N and C are the ends. Peptide text beside a SMILES is read from it. * marks the point of attachment. Galloyl = O=C(c1cc(O)c(O)c(O)c1)*
Experiments:
[1] = Mineralising effects on enamel blocks after pH cycling (SEM-EDS, Micro-CT, XRD); parameters: species or system human; settings: sound enamel treated twice daily with 160 μM, n = 8 per group, mean ± SD; for Calcium-to-phosphate molar ratio: 8 days pH cycling (16 h pH 4.5, 8 h pH 7.0), SEM-EDS; for Mineral loss / Lesion depth: 8 days pH cycling, Micro-CT; for Mineral loss: MDV control area − MDV demineralised area
Procedure: A total of 40 enamel blocks were prepared from extracted sound human molars. The pH-cycling procedure (16 h demineralisation at pH 4.5 and 8 h remineralisation at pH 7.0) was performed on enamel blocks for 8 days, using solutions that contained calcium and phosphate. The enamel blocks from the same tooth were treated twice daily with 160 μM GAPI (GAPI Group), 160 μM GA (GA Group), 160 μM PI (PI Group) and sterile deionised water (Water Group). The structure of the enamel surface was examined using SEM (n = 8 per group). The elemental analysis of enamel surface was conducted using affiliated energy-dispersive X-ray spectroscopy (EDS). The calcium-to-phosphorus molar ratio was calculated.
The mineral loss and lesion depth on the enamel blocks were assessed using microcomputed tomography (Micro-CT) (1172, SkyScan, Antwerp, Belgium) (n = 8 per group). The parameters of Micro-CT were 80 kV voltage and 100 μA current with a voxel size of 12 μm^3. The image was reconstructed with NRecon software 1.7.4.6 (SkyScan, Antwerp, Belgium) and analysed using CTAn 1.20.3.0 (SkyScan, Antwerp, Belgium) to determine the lesion depth and mineral density values (MDVs, gHApcm^−3). The mineral loss = MDV of the control area − MDV of the demineralised area.
The diffraction patterns of the enamel blocks were evaluated using X-ray diffraction analysis (XRD) (Rigaku SmartLab 9 kW, […]) (n = 2 per group).

[2] = Stability in human saliva (HPLC); assay type: in vitro ADME; settings: 37 °C
Procedure: The stability of peptides in human saliva (collected from six individual healthy volunteers; three males and three females; minimum age, 29; and maximum age, 36) was investigated by testing the remaining peptide concentration via HPLC system (Waters Pacific Pte Ltd., Singapore). The test was processed following a previous experimental protocol. After centrifuging the saliva and collecting the supernatant, GAPI was added to the sample and incubated at 37 °C for 60 min. A 1 mL sample was taken and analysed using HPLC system.

[3] = system: S. mutans in three-species biofilm; assay: Growth kinetics of multiple-species biofilm, PMA-qPCR; assay type: cell-based, Streptococcus mutans
Procedure: A multiple-species cariogenic biofilm consisting of S. mutans, L. casei and C. albicans was cultured following a previous protocol. The architecture of the multiple-species biofilm with or without GAPI treatment was assessed using scanning electron microscopy (SEM) and confocal laser scanning microscopy (CLSM). Propidium iodide and […] (DAPI), which highlight bacterial cells, and Concanavalin A (ConA), which labels C. albicans, were used to stain the multiple-species biofilm. The growth kinetics of the multiple-species biofilm were analysed using propidium monoazide–quantitative polymerase chain reaction (PMA-qPCR) (Supplementary Material S1).

## O=C(O)c1cc(O)c(O)c(O)c1 [GA, gallic acid]
[1]
  Calcium-to-phosphate molar ratio: 1.82 ± 0.08
  Mineral loss: 0.88 ± 0.24 gHApcm^−3
  Lesion depth: 62 ± 12 µm

## CC(C)[C@@H]1NC(=O)[C@H](CCCN=C(N)N)NC(=O)[C@H](Cc2ccccc2)NC(=O)[C@@H](NC(=O)[C@H](Cc2c[nH]c3ccccc23)NC(=O)[C@H](CCCN=C(N)N)NC(=O)[C@H](CCCN=C(N)N)NC(=O)c2cc(O)c(O)c(O)c2)CSSC[C@@H](C(=O)N[C@@H](CCCN=C(N)N)C(=O)O)NC(=O)[C@H](CCCCN)NC(=O)[C@H](CCCN=C(N)N)NC(=O)[C@H](Cc2ccc(O)cc2)NC(=O)[C@@H]2CSSC[C@H](NC1=O)C(=O)N[C@@H](Cc1ccc(O)cc1)C(=O)N[C@@H](CCCN=C(N)N)C(=O)NCC(=O)N[C@@H](Cc1ccccc1)C(=O)N2 [GAPI, Gallic-Acid-Polyphemusin-I] (Galloyl-RRWCFRVCYRGFCYRKCR-OH; disulfide 4-17, 8-13)
[2]
  time stable in saliva: at least 60 min

## CC(C)[C@@H]1NC(=O)[C@H](CCCNC(=N)N)NC(=O)[C@H](Cc2ccccc2)NC(=O)[C@@H](NC(=O)[C@H](Cc2c[nH]c3ccccc23)NC(=O)[C@H](CCCNC(=N)N)NC(=O)[C@H](CCCNC(=N)N)NC(=O)c2cc(O)c(O)c(O)c2)CSSC[C@@H](C(=O)N[C@@H](CCCNC(=N)N)C(=O)O)NC(=O)[C@H](CCCCN)NC(=O)[C@H](CCCNC(=N)N)NC(=O)[C@H](Cc2ccc(O)cc2)NC(=O)[C@@H]2CSSC[C@H](NC1=O)C(=O)N[C@@H](Cc1ccc(O)cc1)C(=O)N[C@@H](CCCNC(=N)N)C(=O)NCC(=O)N[C@@H](Cc1ccccc1)C(=O)N2 [GAPI, Gallic-Acid-Polyphemusin-I] (Galloyl-RRWCFRVCYRGFCYRKCR-OH; disulfide 4-17, 8-13; C-terminus assumed)
[3]
  reduction of S. mutans in biofilm versus untreated: more than 10 fold
[1]
  Calcium-to-phosphate molar ratio: 1.81 ± 0.05
  Mineral loss: 0.89 ± 0.20 gHApcm^−3
  Lesion depth: 64 ± 7 µm

## CC(C)[C@@H]1NC(=O)[C@H](CCCNC(=N)N)NC(=O)[C@H](Cc2ccccc2)NC(=O)[C@@H](NC(=O)[C@H](Cc2c[nH]c3ccccc23)NC(=O)[C@H](CCCNC(=N)N)NC(=O)[C@@H](N)CCCNC(=N)N)CSSC[C@@H](C(=O)N[C@@H](CCCNC(=N)N)C(=O)O)NC(=O)[C@H](CCCCN)NC(=O)[C@H](CCCNC(=N)N)NC(=O)[C@H](Cc2ccc(O)cc2)NC(=O)[C@@H]2CSSC[C@H](NC1=O)C(=O)N[C@@H](Cc1ccc(O)cc1)C(=O)N[C@@H](CCCNC(=N)N)C(=O)NCC(=O)N[C@@H](Cc1ccccc1)C(=O)N2 [PI, Polyphemusin I] (H-RRWCFRVCYRGFCYRKCR-OH; disulfide 4-17, 8-13; N-terminus and C-terminus assumed)
[1]
  Calcium-to-phosphate molar ratio: 1.70 ± 0.06
  Mineral loss: 1.32 ± 0.26 gHApcm^−3
  Lesion depth: 96 ± 9 µm

— paper PMC10675526, “Development of a Novel Peptide with Antimicrobial and Mineralising Properties for Caries Management” (Pharmaceutics, 2023)
